Drawing on patent US9073940B2, “Tricyclic pyrazol amine derivatives” (MERCK SERONO SA, priority 2009, dated 2015), this text covers IC50 for 31 molecules.

This experiment deals with 4 PI3K isoforms (Human recombinant GST-PI3K). The experiment in a line: PI3K scintillation proximity assay, best IC50 obtained with the four isoforms (alpha, beta, delta, gamma). The experiment is classed as biochemical. The note with it: best IC50 obtained with the four isoforms of PI3K; read-out: Best potency measured on the 4 PI3K isoforms. (In general: SPA uses beads or plates that emit light when radiolabelled molecules are held near them.)
Consider `O=C1CCCN1CCN1CCC[C@H](n2nc(C(=O)N3CCOCC3)c3c2-c2ccccc2S(=O)(=O)C3)C1` (single isomer, unassigned) [Example 440, 1-(2-{3-[3-(morpholin-4-ylcarbonyl)-5,5-dioxidothiochromeno[4,3-c]pyrazol-1(4H)-yl]piperidin-1-yl}ethyl)pyrrolidin-2-one], for which the IC50 stood at 80 nM.

Regarding `COCCN1CCC[C@H](n2nc(C(=O)N3CCOCC3)c3c2-c2cccc(C)c2S(=O)(=O)C3)C1` (single isomer, unassigned) [Example 467, 1-[1-(2-methoxyethyl)piperidin-3-yl]-6-methyl-3-(morpholin-4-ylcarbonyl)-1,4-dihydrothiochromeno[4,3-c]pyrazole 5,5-dioxide], the IC50 turned out to be 96 nM.

Regarding `COCCCN1CCC(n2nc(C(=O)N3CCOCC3)c3c2-c2ccccc2S(=O)(=O)C3)C1` (stereo not shown) [Example 256, 1-[1-(3-Methoxypropyl)pyrrolidin-3-yl]-3-(morpholin-4-ylcarbonyl)-1,4-dihydrothiochromeno[4,3-c]pyrazole 5,5-dioxide], the IC50 is 923 nM. The result for `CCc1noc(Cn2nc(C(=O)N3CCOCC3)c3c2-c2ccccc2S(=O)(=O)C3)n1` [Example 230, 1-[(3-Ethyl-1,2,4-oxadiazol-5-yl)methyl]-3-(morpholin-4-ylcarbonyl)-1,4-dihydrothiochromeno[4,3-c]pyrazole 5,5-dioxide] reads 1920 nM.

As for `COc1cccc(-n2nc(C(=O)N3CCOCC3)c3c2-c2ccccc2S(=O)(=O)C3)c1` [Example 9, 1-(3-methoxyphenyl)-3-(morpholin-4-ylcarbonyl)-1,4-dihydrothiochromeno[4,3-c]pyrazole 5,5-dioxide], the IC50 turned out to be 1320 nM. Regarding `CN1CCC(N2CCC[C@H](n3nc(C(=O)N4CCOCC4)c4c3-c3ccccc3S(=O)(=O)C4)C2)CC1` (stereo in doubt) [Example 451, 1-[1′-methyl-1,4′-bipiperidin-3-yl]-3-(morpholin-4-ylcarbonyl)-1,4-dihydrothiochromeno[4,3-c]pyrazole 5,5-dioxide], the IC50 was found to be 28 nM.

For the molecule `O=C(c1nn(C2CCCN(CCn3ccnc3)C2)c2c1CS(=O)(=O)c1ccccc1-2)N1CCOCC1` (stereo not shown) [Example 297, 1-{1-[2-(1H-Imidazol-1-yl)ethyl]piperidin-3-yl}-3-(morpholin-4-ylcarbonyl)-1,4-dihydrothiochromeno[4,3-c]pyrazole 5,5-dioxide], the IC50 turned out to be 52 nM.

Take `Cc1ccc2c(c1)-c1c(c(C(=O)N3CCOCC3)nn1-c1ccccc1)CS2(=O)=O` [Example 129, 8-Methyl-3-(morpholin-4-ylcarbonyl)-1-phenyl-1,4-dihydrothiochromeno[4,3-c]pyrazole 5,5-dioxide]: the IC50 stood at 1500 nM. Regarding `O=C(c1nn(C2CCCNC2)c2c1CS(=O)(=O)c1ccccc1-2)N1CCOCC1` (stereo not shown) [Example 75], the IC50 was found to be 3010 nM. Take `O=C(c1nn(-c2ccccc2)c2c1C(CC1CC1)S(=O)(=O)c1ccccc1-2)N1CCOCC1` (stereo not shown) [Example 58, 4-(cyclopropylmethyl)-3-(morpholin-4-ylcarbonyl)-1-phenyl-1,4-dihydrothiochromeno[4,3-c]pyrazole 5,5-dioxide]: the IC50 was found to be 3900 nM.

Consider `CC1CN(Cc2ccc(-n3nc(C(=O)N4CCOCC4)c4c3-c3ccccc3S(=O)(=O)C4)cc2)CCO1` (stereo not shown) [Example 432, 1-{4-[(2-Methylmorpholin-4-yl)methyl]phenyl}-3-(morpholin-4-ylcarbonyl)-1,4-dihydrothiochromeno[4,3-c]pyrazole 5,5-dioxide], for which the IC50 turned out to be 105 nM. For `CN(C)CCCn1nc(C(=O)N2CCOCC2)c2c1-c1ccccc1S(=O)(=O)C2` [Example 69, N,N-Dimethyl-3-[3-(morpholin-4-ylcarbonyl)-5,5-dioxidothiochromeno[4,3-c]pyrazol-1(4H)-yl]propan-1-amine], the IC50 worked out at 3110 nM.

On to `CC1CC(C)CC(n2nc(C(=O)N3CCOCC3)c3c2-c2ccccc2S(=O)(=O)C3)C1` (stereo not shown) [Example 321], for which the IC50 worked out at 7960 nM. Turning to `Nc1ncc(-c2cccc(-n3nc(C(=O)N4CCOCC4)c4c3-c3ccccc3S(=O)(=O)C4)c2)cn1` [Example 186, 5-{3-[3-(Morpholin-4-ylcarbonyl)-5,5-dioxidothiochromeno[4,3-c]pyrazol-1 (4H)-yl]phenyl}pyrimidin-2-amine], the IC50 is 454 nM. The result for `CS(=O)(=O)C1CCN(Cc2cccc(-n3nc(C(=O)N4CCOCC4)c4c3-c3ccccc3S(=O)(=O)C4)c2)C1` (stereo not shown) [Example 243, 1-(3-{[3-(Methylsulfonyl)pyrrolidin-1-yl]methyl}phenyl)-3-(morpholin-4-ylcarbonyl)-1,4-dihydrothiochromeno[4,3-c]pyrazole 5,5-dioxide] reads 464 nM; that for `O=C(c1nn(C2CCCN(Cc3ccccc3)C2)c2c1CS(=O)(=O)c1ccccc1-2)N1CCOCC1` (stereo not shown) [Example 174, 1-(1-Benzylpiperidin-3-yl)-3-(morpholin-4-ylcarbonyl)-1,4-dihydrothiochromeno[4,3-c]pyrazole 5,5-dioxide], 540 nM.

In the case of `O=C(c1ccc2c(c1)-c1c(c(C(=O)N3CCOCC3)nn1-c1ccccc1)CS2(=O)=O)N1CCCCC1` [Example 117, 3-(Morpholin-4-ylcarbonyl)-1-phenyl-8-(piperidin-1-ylcarbonyl)-1,4-dihydrothiochromeno[4,3-c]pyrazole 5,5-dioxide], the IC50 turned out to be 3410 nM. For the molecule `O=C(c1cccc(-n2nc(C(=O)N3CCOCC3)c3c2-c2ccccc2S(=O)(=O)C3)c1)N1CCCC(CO)C1` (stereo not shown) [Example 145, (1-{3-[3-(Morpholin-4-ylcarbonyl)-5,5-dioxidothiochromeno[4,3-c]pyrazol-1 (4H)-yl]benzoyl}piperidin-3-yl)methanol], the IC50 was found to be 502 nM. Under `O=C(c1cccc(-n2nc(C(=O)N3CCOCC3)c3c2-c2ccccc2S(=O)(=O)C3)c1)N1CCCC(O)C1` (stereo not shown) [Example 144, 1-{3-[3-(Morpholin-4-ylcarbonyl)-5,5-dioxidothiochromeno[4,3-c]pyrazol-1 (4H)-yl]benzoyl}piperidin-3-ol] stands 348 nM; under `CN1CCCC(n2nc(C(=O)N3CCOCC3)c3c2-c2ccccc2S(=O)(=O)C3)C1` (stereo not shown) [Example 77, 1-(1-Methylpiperidin-3-yl)-3-(morpholin-4-ylcarbonyl)-1,4-dihydrothiochromeno[4,3-c]pyrazole 5,5-dioxide], 772 nM. The result for `O=C(c1nn(C2CCCN(CCC(F)(F)F)C2)c2c1CS(=O)(=O)c1ccccc1-2)N1CCOCC1` (stereo not shown) [Example 222, 3-(Morpholin-4-ylcarbonyl)-1-[1-(3,3,3-trifluoropropyl)piperidin-3-yl]-1,4-dihydrothiochromeno[4,3-c]pyrazole 5,5-dioxide] reads 149 nM; that for `O=C(c1nn([C@@H]2CCN(CCN3CCC(F)CC3)C2)c2c1CS(=O)(=O)c1ccccc1-2)N1CCOCC1` (single isomer, unassigned) [Example 409, 1-{1-[2-(4-fluoropiperidin-1-yl)ethyl]pyrrolidin-3-yl}-3-(morpholin-4-ylcarbonyl)-1,4-dihydrothiochromeno[4,3-c]pyrazole 5,5-dioxide], 55 nM. `O=C(c1nn(-c2cccc(-c3cccnc3)c2)c2c1CS(=O)(=O)c1ccccc1-2)N1CCOCC1` [Example 198, 3-(Morpholin-4-ylcarbonyl)-1-(3-pyridin-3-ylphenyl)-1,4-dihydrothiochromeno[4,3-c]pyrazole 5,5-dioxide]: the IC50 came to 280 nM. The result for `O=C(c1nn(-c2cccc(Nc3ccccc3)c2)c2c1CS(=O)(=O)c1ccccc1-2)N1CCOCC1` [Example 166, {3-[3-(Morpholin-4-ylcarbonyl)-5,5-dioxidothiochromeno[4,3-c]pyrazol-1 (4H)-yl]phenyl}phenylamine] reads 2700 nM. As for `COCCN1CCCC(n2nc(C(=O)N3CCOCC3)c3c2-c2ccccc2S(=O)(=O)C3)C1` (stereo not shown) [Example 133, 1-[1-(2-Methoxyethyl)piperidin-3-yl]-3-(morpholin-4-ylcarbonyl)-1,4-dihydrothiochromeno[4,3-c]pyrazole 5,5-dioxide], the IC50 was 188 nM. The result for `Cn1cc(-n2nc(C(=O)N3CCOCC3)c3c2-c2ccsc2S(=O)(=O)C3)ccc1=O` [Example 195, 1-Methyl-5-[3-(morpholin-4-ylcarbonyl)-5,5-dioxidothieno[3′,2′:5,6]thiopyrano[4,3-c]pyrazole-1 (4H)-yl]pyridin-2 (1H)-one] reads 2690 nM; that for `COCCN(C)CCN1CCC[C@H](n2nc(C(=O)N3CCOCC3)c3c2-c2ccccc2S(=O)(=O)C3)C1` (stereo in doubt) [Example 438, 2-methoxy-N-methyl-N-(2-{3-[3-(morpholin-4-ylcarbonyl)-5,5-dioxidothiochromeno[4,3-c]pyrazol-1(4H)-yl]piperidin-1-yl}ethyl)ethanamine], 45 nM; that for `O=C(c1nn([C@@H]2CCCN(CCn3ccnc3)C2)c2c1CS(=O)(=O)c1ccccc1-2)N1CCOCC1` (single isomer, unassigned) [Example 411, 1-{1-[2-(1H-imidazol-1-yl)ethyl]piperidin-3-yl}-3-(morpholin-4-ylcarbonyl)-1,4-dihydrothiochromeno[4,3-c]pyrazole 5,5-dioxide], 444 nM.

As for `O=C(c1nn(C2CCN(CCN3CC[C@@H](F)C3)C2)c2c1CS(=O)(=O)c1ccccc1-2)N1CCOCC1` (stereo partly drawn) [Example 308, 1-(1-{2-[(3R)-3-Fluoropyrrolidin-1-yl]ethyl}pyrrolidin-3-yl)-3-(morpholin-4-ylcarbonyl)-1,4-dihydrothiochromeno[4,3-c]pyrazole 5,5-dioxide], the IC50 turned out to be 120 nM. `O=C(c1nn(-c2ccccc2)c2c1CS(=O)(=O)c1ccncc1-2)N1CCOCC1` [Example 150, 3-(Morpholin-4-ylcarbonyl)-1-phenyl-1,4-dihydropyrazolo[3′,4′:4,5]thiopyrano[3,2-c]pyridine 5,5-dioxide]: the IC50 was determined as 3050 nM. The result for `O=C(c1nn(C2CCN(CCN3CC(F)(F)C3)C2)c2c1CS(=O)(=O)c1ccccc1-2)N1CCOCC1` (stereo not shown) [Example 311, 1-{1-[2-(3,3-Difluoroazetidin-1-yl)ethyl]pyrrolidin-3-yl}-3-(morpholin-4-ylcarbonyl)-1,4-dihydrothiochromeno[4,3-c]pyrazole 5,5-dioxide] reads 156 nM.
